Like-named read-outs stand apart in the source and are kept apart here. *1 amine or outer side, *2 acyl side, *3 side chain or, on linkers, in order; H or OH if unused. Where a SMILES comes first, the peptide text is derived from it. Bridges are numbered along the chain shown (N, C = ends). NH(CH2)4NH = C(CCN[*:2])CN[*:1]
Experiments:
[1] = molecular target: T1, PKA (Homo sapiens, UniProt P17612); experiment: PKA activity of BIG3 immunoprecipitates from SK-BR-3 cells; format: cell-based
T1 construct: endogenous in cells; host or cells: SK-BR-3

[2] = tested on: BIG3 phosphorylation; experiment: BIG3 phosphorylation (Ser305, Ser1208) in SK-BR-3 and KPL-4 cells, immunoblot; format: cell-based, human; details: SK-BR-3 and KPL-4, 30 minutes; 10 μM H-89, 100 μg/mL trastuzumab, 10 nM lapatinib
[3] = tested on: PP1Cα; experiment: PP1Cα activity of BIG3 immunoprecipitates from SK-BR-3 cells; format: cell-based, human; details: SK-BR-3, 24 hours; 10 μM H-89, 100 μg/mL trastuzumab, 10 nM lapatinib
[4] = tested on: MCF-7 cells; format: cell-based, human; details: for inhibition rate on estrogen-dependent cell growth: 96 h
[5] = molecular target: T2, chymotrypsin (Bos taurus, UniProt P00766); experiment: Chymotrypsin resistance (HPLC); format: in vitro ADME; details: 1 μg chymotrypsin, 5 μg peptide, 37° C., 24 hours
T2 construct: purchased Sigma C7761
Protocol: The chromatograms for double stapled ERAP No. 45 (A) and double stapled ERAP No. 46 (B), when a double stapled ERAP was reacted with chymotrypsin at 37° C. for 24 hours, are shown. In the experiment, the double stapled ERAP-chymotrypsin reaction solutions were subjected to high performance liquid chromatography (reverse-phase column, 0.3 mL/min flow rate, gradient elution (solution A: 0.1% trifluoroacetic acid; solution B: 0.1% trifluoroacetic acid/acetonitrile, A/B=90/10 (0-20 min) to 40/60 (20-80 min))), and detection was carried out by UV at 210 nm.
Chymotrypsin resistance was analyzed by adding 1 μg of chymotrypsin (#C7761, Sigma) and 5 μg of double stapled ERAP in a buffer (50 mM Tris-HCl; pH 8.0, 10 mM CaCl2), allowing this to react at 37° C. for 24 hours, and then subjecting the whole amount to high-performance liquid chromatography (HPLC). For the HPLC, a reverse-phase column (Inertsil Peptides C18 250×3.0 mm I.D.; GL Science, Tokyo, Japan) was used, gradient elution was performed using Solution A (0.1% trifluoroacetic acid) and Solution B (0.1% trifluoroacetic acid/acetonitrile) (A/B=90/10 (0-20 min), 90/10-40/60 (20-80 min)) at a flow rate of 0.3 mL/min, and a chromatogram for each double stapled ERAP was obtained by UV detection at 210 nm.

[6] = tested on: SK-BR-3; format: cell-based, human; details: 96 h
Protocol: (§1) For the single stERAP and double stERAP #46, peptides were added at a total of eleven concentrations prepared by three-fold serial dilution starting from 20 μM. For the double stERAP #45, peptides were added at a total of eight concentrations prepared by two-fold serial dilation starting from 50 μM. The number of viable cells were measured 96 hours after the peptide addition, and relative values thereof were calculated based on the negative control cells without peptide addition and plotted. Experiments using double stERAP #45 on the SW982 cell line were not carried out.
(§2) MDA-MB-231 cells and SW982 cells were cultured using Leibovitz's L-15 medium (Thermo Fisher Scientific) at 37° C. without CO2 concentration control. All media were used by supplementing 10% FBS (Thermo Fisher Scientific) and a 1% antibiotic/antimycotic solution (Wako Pure Chemical, Osaka, Japan).
(§3) SK-BR-3 cells, BT-20 cells, and MDA-MB-231 cells were seeded into 48-well plates at 1×10^4 cells/200 μL in each well, and SW982 cells were seeded into 48-well plates at 0.5×10^4 cells/200 μL in each well. 48 hours later, the medium in each well was exchanged to a medium supplemented with a peptide (single stERAP and double stERAP #46: three-fold serial dilution from 20 μM, double stERAP #45: two-fold serial dilution starting from 50 μM), and after culturing for another 96 hours, the level of cell growth was measured using the Cell Counting Kit-8 (Dojindo, Kumamoto, Japan). Data were obtained from three independent experiments, a graph (mean±standard deviation) was produced using a graphing and data analyzing software SigmaPlot (Systat Software, San Jose, Calif., USA), and the 50% inhibition concentration (IC50) of the peptide against cell growth was calculated.

[7] = tested on: MDA-MB-231; format: cell-based, human; details: 96 h
Protocol: as §1, §2, §3

[8] = tested on: BT-20; format: cell-based, human; details: 96 h
Protocol: as §1, §2, §3

[9] = molecular target: T3, BIG3-PHB2 interaction (Homo sapiens, UniProt Q99623); experiment: Inhibition of BIG3-PHB2 interaction in MCF-7 cells (immunoprecipitation, Western blotting); format: cell-based; details: MCF7, 96 hours, 10 nM estrogen, read-out: inhibition rate of BIG3-PHB2 binding
T3 construct: endogenous in cells; host or cells: MCF-7
Protocol: (A, B) Inhibitory effect of double stapled ERAP No. 46 on BIG3-PHB2 interaction in MCF-7 cells was evaluated by Western blotting. […] Then, the cells were lysed, immunoprecipitation was performed using an anti-BIG3 antibody, and immunoblot analyses were performed using the antibodies indicated in the drawing. The binding inhibition rates are expressed as proportions to the band area for PHB2 in untreated cells which is set as 100.
For immunoblot analyses, after performing SDS-PAGE, the membranes blotted with proteins were blocked with 4% BlockAce solution (Dainippon Pharmaceutical, Osaka, Japan) for 3 hours and then incubated to react for 12 hours with antibodies against BIG3 (1:1,000) and PHB2 (1:1,000) (Abcam, Cambridge, UK). After allowing interaction with HRP-labeled secondary antibodies (anti-rat IgG-HRP for BIG3, 1:5,000; and anti-rabbit IgG-HRP for PHB2, 1:1,000) (Santa Cruz Biotechnology, Dallas, Tex., USA) for 1 hour, the blots were developed with the Enhanced Chemiluminescence (ECL) system (GE Healthcare, Buckinghamshire, UK) and scanned using the Image Reader LAS-3000 mini (Fujifilm, Tokyo, Japan). […]

[10] = tested on: SW982; format: cell-based, human; details: 96 h
Protocol: as §1, §2, §3

[11] = tested on: PKCα; experiment: PKCα activity of PKCα immunoprecipitates from SK-BR-3 cells; format: cell-based, human; details: SK-BR-3, 10 nM lapatinib in the presence of stERAP, 24 hours
Protocol: (A) Immunoblots are shown which indicate that PHB2 (Ser39) is phosphorylated in a PKCα-dependent manner in a HER2-positive breast cancer cell line. SK-BR-3 cells in which PKCα expression was suppressed by the siRNA method were treated for 24 hours with 1 μM stERAP, then cell lysate thereof was subjected to immunoprecipitation using an anti-PHB2 antibody, and immunoblot analyses were performed using the antibodies shown in the drawing. (B) PKCα activity by EGFR signaling in SK-BR-3 cells is shown. SK-BR-3 cells were treated for 24 hours with 1 μM stERAP, and with 10 nM lapatinib in the presence of stERAP, cell lysates thereof were subjected to immunoprecipitation using an anti-PKCα antibody, and PKCα activities were calculated using CREBtide as a substrate. Data represent the mean±standard error of three independent experiments.
The activities of protein kinase A (PKA) and protein kinase C alpha (PKCα) were measured by reacting the immunoprecipitates of BIG3 and PKCα with a synthetic substrate CREBtide ([…]) and 0.5 mM ATP in a kinase buffer (25 mM Hepes, pH 7.2, 25 mM MgCl2, 5 mM EDTA, 5 mM EGTA, 0.25 mM DTT) at 30° C. for 30 minutes, and by using an ADP-Glo kinase assay Kit (Promega, Fitchburg, Wis., USA).

[12] = tested on: PHB2 (Ser39) phosphorylation; experiment: PHB2 (Ser39) phosphorylation in SK-BR-3 cells, immunoblot; format: cell-based, human; details: SK-BR-3, presence of 1 μM stERAP; 100 μg/mL trastuzumab, 10 nM lapatinib
[13] = tested on: HER2-Shc interaction; experiment: HER2-Shc interaction, immunoprecipitation with anti-HER2 antibody; format: cell-based, human; details: SK-BR-3, 2 μM AZ3146 and 1 μM stERAP, 24 hours
[14] = tested on: HER2-HER3 interaction; experiment: HER2-HER3 interaction, immunoprecipitation with anti-HER2 antibody; format: cell-based, human; details: SK-BR-3, 2 μM AZ3146 and 1 μM stERAP, 24 hours

T3 sequence (Q99623 2-299 limits assumed): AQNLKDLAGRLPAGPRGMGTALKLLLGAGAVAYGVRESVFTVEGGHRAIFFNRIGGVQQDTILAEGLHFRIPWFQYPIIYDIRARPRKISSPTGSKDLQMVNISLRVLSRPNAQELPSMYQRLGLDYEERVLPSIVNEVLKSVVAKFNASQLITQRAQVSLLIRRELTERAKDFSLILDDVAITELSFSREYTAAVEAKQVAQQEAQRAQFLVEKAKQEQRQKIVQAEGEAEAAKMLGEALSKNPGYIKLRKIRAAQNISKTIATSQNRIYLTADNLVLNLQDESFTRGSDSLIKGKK

Compound | suppression of BIG3 phosphorylation (Ser305 and Ser1208) [2] | inhibition rate for PP1Cα activity [3] | IC50 [4] [µM] | degradation by chymotrypsin treatment (chromatogram) [5] | IC50 [6] [µM] | IC50 [7] [µM] | IC50 [8] [µM] | further results
O=S(=O)(NCCNC/C=C/c1ccc(Br)cc1)c1cccc2cnccc12 [H-89] | nearly completely suppressed | 96% | – | – | – | – | – | inhibition rate for PKA activity ([1]; SK-BR-3, 24 hours, 10 μM H-89, 100 μg/mL trastuzumab, 10 nM lapatinib): 100%
CSCC[C@H](NC(=O)[C@H](CCC(N)=O)NC(C)=O)C(=O)N[C@H]1CCC(=O)NCCCCNC(=O)CC[C@@H](C(=O)N[C@H]2CCC(=O)NCCCCNC(=O)CC[C@@H](C(=O)N[C@@H](CCCNC(=N)N)C(N)=O)NC(=O)[C@H](CCCNC(=N)N)NC(=O)[C@H](CC(C)C)NC(=O)[C@H](CCC(N)=O)NC2=O)NC(=O)[C@H](CC(C)C)NC(=O)[C@H](CC(=O)O)NC(=O)[C@H](CO)NC1=O [double stapled ERAP No. 45] (Ac-QMESDLEEQLRER-NH2; linker 3-7, 8-12 via NH(CH2)4NH) | – | – | 2.32 | several degradation products | 2.8 | 23.7 | 8.6 | inhibition rate on estrogen-dependent cell growth ([4]; 1 μM): 21%
CSCC[C@H](NC(=O)[C@H](CCC(N)=O)NC(C)=O)C(=O)N[C@H]1CCC(=O)NCCCCNC(=O)CC[C@@H](C(=O)N[C@@H](CC(C)C)C(=O)N[C@@H](CCC(N)=O)C(=O)N[C@H]2CCC(=O)NCCCCNC(=O)CC[C@@H](C(N)=O)NC(=O)[C@H](CCCNC(=N)N)NC(=O)[C@H](CCC(N)=O)NC(=O)[C@H](CCCNC(=N)N)NC2=O)NC(=O)[C@H](CC(C)C)NC(=O)[C@H](CC(=O)O)NC(=O)[C@H](CO)NC1=O [double stapled ERAP No. 46] (Ac-QMESDLELQERQRE-NH2; linker 3-7, 10-14 via NH(CH2)4NH) | – | – | 0.43 | hardly showed its degradation | 0.02 | 0.143 | 0.074 | inhibition rate on estrogen-dependent cell growth ([4]; 10 μM): 91%; inhibition at 1 µM ([9]; 1 μM): 60%; inhibition at 10 µM ([9]; 10 μM): 95%; IC50 [10]: 0.026 µM
CS(=O)(=O)CCNCc1ccc(-c2ccc3ncnc(Nc4ccc(OCc5cccc(F)c5)c(Cl)c4)c3c2)o1 [lapatinib] | not so involved in the suppression of BIG3 phosphorylation | about 15% | – | – | – | – | – | inhibition at 0.01 µM ([1]; SK-BR-3, read-out: inhibition rate for PKA activity): ~15%; PKCα activity inhibition [11]: approximately 80%; decrease of PHB2 (Ser39) phosphorylation [12]: nearly completely suppressed
AZ3146 | – | – | – | – | – | – | – | effect on stERAP inhibition of HER2-Shc interaction [13]: nearly completely canceled the inhibitory effects; effect on stERAP inhibition of HER2-HER3 interaction [14]: nearly completely canceled the inhibitory effects

Reference: patent US11091517B2, “Peptide derivative and pharmaceutical composition containing same” (TOKUSHIMA UNIVERSITY, priority 2017, dated 2021)
